Among the test systems are MCF7; RXF 393; HCC 2998; OVCAR-3; ACHN; A549; MDA-MB-231; SK-OV-3; M14; SNB-19; NCI-H522; MDA-N; SR; SF-539; U-251; DU-145; T47D; NCI-H460; TK-10; MOLT-4.
Common to all, as to assay: DTP human tumour cell line panel, 48 h

Data on 10 molecules can be found in ChEMBL document CHEMBL1201862, “PubChem BioAssay data set” (2004).

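In this assay, cells in 96-well plates receive the compound at five concentrations for 48 hours. Endpoints are linearly interpolated between the surrounding concentrations. GI50: concentration for 50% inhibition of growth.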 The source made the active and inactive calls. Cut-off read from the data, not from the text of the source: active = GI50 up to about 1.1 µM and inactive = higher. Where only a bound is given, the exact number is not on record here.

As a reminder, the GI50 is the concentration at which growth is held to half of that of the control.

On to `OC1(c2ccc(Cl)cc2)c2ccccc2C2=Nc3ccccc3CN21` (stereo not given), for which the GI50 was 21.9 µM (inactive) in the experiment with MCF7; 21 µM (inactive) in the experiment with RXF 393; > 71.4 µM (inactive) with HCC 2998; 2.96 µM (inactive) in the experiment with OVCAR-3; 8.59 µM (inactive) in the experiment on ACHN; 12.7 µM (inactive) in the experiment with A549. Also, the GI50 is 34.6 µM (inactive) in the experiment on MDA-MB-231; 38.5 µM (inactive) in the experiment with SK-OV-3; > 100 µM (inactive) in the experiment with M14; 36.1 µM (inactive) with SNB-19; 25.1 µM (inactive) in the experiment on NCI-H522; > 70 µM (inactive) in the experiment with MDA-N. Besides, the GI50 in the experiment on SR was 5.93 µM (inactive); in the experiment on SF-539 it was 39.6 µM (inactive); in the experiment with U-251, 23.7 µM (inactive); with DU-145 it was 36.2 µM (inactive); in the experiment with T47D it was 45.5 µM (inactive); in the experiment on NCI-H460, 37.6 µM (inactive). Besides, the GI50 is > 95.5 µM (inactive) with TK-10 and 61.8 µM (inactive) with MOLT-4.

Consider `O=c1c2ccccc2sc2nc(CCl)nn12`, for which the GI50 in the experiment with MCF7 is 3.65 µM (inactive); in the experiment on RXF 393, 6.75 µM (inactive); in the experiment with HCC 2998, 13.3 µM (inactive); in the experiment with OVCAR-3 it was > 100 µM (inactive); with ACHN it was 6.31 µM (inactive); with A549, 31 µM (inactive). Further, the GI50 is 8.36 µM (inactive) with MDA-MB-231; 14.8 µM (inactive) in the experiment with SK-OV-3; 22 µM (inactive) in the experiment on M14; 77.4 µM (inactive) with SNB-19; 44.8 µM (inactive) in the experiment on NCI-H522; 4.94 µM (inactive) in the experiment with MDA-N. For the same molecule, the GI50 with SR was 10.9 µM (inactive); in the experiment on SF-539 it was 32.4 µM (inactive); with U-251 it was > 96.8 µM (inactive); in the experiment on DU-145, 7.78 µM (inactive); in the experiment with T47D it was 4.76 µM (inactive); in the experiment with NCI-H460, 5.64 µM (inactive). Moreover, the GI50 is 10.4 µM (inactive) in the experiment with TK-10 and 97.5 µM (inactive) with MOLT-4.

With `COC(=O)c1c(CC(Cc2ccc3c(c2)CCCC3)C(=O)OC)ccc2c1CCCC2` (stereo not given), the GI50 in the experiment on MCF7 was 20.6 µM (inactive); with RXF 393 it was 60.5 µM (inactive); in the experiment on HCC 2998 it was 23.1 µM (inactive); in the experiment with OVCAR-3 it was > 100 µM (inactive); with ACHN it was 45.1 µM (inactive); in the experiment with A549, 37 µM (inactive). Also, the GI50 in the experiment with MDA-MB-231 was > 100 µM (inactive); in the experiment with SK-OV-3, 39.2 µM (inactive); in the experiment with M14, > 100 µM (inactive); in the experiment with SNB-19, > 100 µM (inactive); with NCI-H522, > 100 µM (inactive); in the experiment with MDA-N, 77.1 µM (inactive). Besides, the GI50 was 34.7 µM (inactive) in the experiment with SR; > 100 µM (inactive) in the experiment with SF-539; 98.2 µM (inactive) in the experiment on U-251; > 100 µM (inactive) in the experiment with DU-145; 35.8 µM (inactive) in the experiment with T47D; 88.5 µM (inactive) in the experiment with NCI-H460. The GI50 in the experiment with TK-10 was > 100 µM (inactive); in the experiment on MOLT-4 it was 27.2 µM (inactive).

On to `NNC(=O)c1cc(Cl)ccc1NC(=O)C12CC3CC(CC(C3)C1)C2`, for which the GI50 was 27.2 µM (inactive) with MCF7; 37.8 µM (inactive) in the experiment on RXF 393; 18.5 µM (inactive) with HCC 2998; 25.5 µM (inactive) in the experiment on OVCAR-3; 23.6 µM (inactive) in the experiment with ACHN; 20.2 µM (inactive) in the experiment with A549. For the same molecule, the GI50 in the experiment on MDA-MB-231 was 51.2 µM (inactive); in the experiment with SK-OV-3, 28.7 µM (inactive); with M14, 14.1 µM (inactive); in the experiment on SNB-19, 15.6 µM (inactive); in the experiment with NCI-H522 it was 25.4 µM (inactive); in the experiment with MDA-N, 26.2 µM (inactive). Besides, the GI50 with SR is 14.4 µM (inactive); with SF-539, 42.1 µM (inactive); in the experiment on U-251 it was 31.4 µM (inactive); in the experiment with DU-145, 44.8 µM (inactive); with T47D it was 33 µM (inactive); in the experiment with NCI-H460, 30.9 µM (inactive). In addition, the GI50 is 28.4 µM (inactive) in the experiment on TK-10 and 12.1 µM (inactive) in the experiment with MOLT-4.

With `O=C1CCCC2C3CC(CN12)C1CCCCN1C3.[O-][Cl+3]([O-])([O-])O` (stereo not given), the GI50 with MCF7, in the experiment with RXF 393, in the experiment on HCC 2998, in the experiment with OVCAR-3, in the experiment on ACHN and in the experiment with A549 was > 100 µM (inactive) in each case. Also, the GI50 with MDA-MB-231, in the experiment with SK-OV-3, in the experiment on M14, in the experiment with SNB-19, in the experiment with NCI-H522 and in the experiment with MDA-N was > 100 µM (inactive) throughout. For the same molecule, the GI50 in the experiment with SR, with SF-539, in the experiment on U-251, with DU-145, with T47D and in the experiment on NCI-H460 was > 100 µM (inactive) in each case. Also, the GI50 in the experiment on TK-10 and in the experiment with MOLT-4 was > 100 µM (inactive) throughout.

Turning to `COc1cccc2c1C(=O)c1c(O)c3c(c(O)c1C2=O)C[C@@](O)(C(C)=O)C[C@@H]3OC1CC(N(C)C)C(O)C(C)O1` (stereo not given in full), the GI50 in the experiment with MCF7 is 0.01 µM (active); with RXF 393, 0.00681 µM (active); in the experiment with HCC 2998, 0.0333 µM (active); with OVCAR-3 it was 0.00649 µM (active); with ACHN, 0.00337 µM (active); in the experiment with A549 it was 0.00617 µM (active). Moreover, the GI50 was 0.00132 µM (active) in the experiment on MDA-MB-231; 0.00593 µM (active) in the experiment on SK-OV-3; 0.00439 µM (active) in the experiment on M14; 0.00411 µM (active) in the experiment with SNB-19; 0.0046 µM (active) with NCI-H522; 0.000226 µM (active) with MDA-N. In addition, the GI50 in the experiment with SR was 0.00135 µM (active); in the experiment with SF-539 it was 0.00417 µM (active); in the experiment with U-251, 0.00425 µM (active); in the experiment with DU-145, 0.000785 µM (active); in the experiment on T47D, 0.000196 µM (active); in the experiment on NCI-H460, 0.00383 µM (active). Moreover, the GI50 is 0.00514 µM (active) in the experiment with TK-10 and 0.00309 µM (active) with MOLT-4.

`C[C@@H](c1ccccc1)C(CC#N)[C@H]1CCC[C@]1(O)C#Cc1ccc2c(c1)OCO2` (stereo not given in full): the GI50 in the experiment with MCF7 is 18.4 µM (inactive); in the experiment on RXF 393 it was 14.4 µM (inactive); in the experiment with HCC 2998, 16.3 µM (inactive); in the experiment on OVCAR-3, 15.6 µM (inactive); with ACHN it was 16.6 µM (inactive); in the experiment on A549 it was 16.3 µM (inactive). For the same molecule, the GI50 with MDA-MB-231 is 17.5 µM (inactive); with SK-OV-3 it was 18.1 µM (inactive); in the experiment on M14, 16.9 µM (inactive); in the experiment with SNB-19, 16.1 µM (inactive); in the experiment with NCI-H522 it was 15.3 µM (inactive); with MDA-N, 16.7 µM (inactive). In addition, the GI50 in the experiment with SR is 19.7 µM (inactive); with SF-539, 10.6 µM (inactive); in the experiment on U-251, 16.9 µM (inactive); in the experiment on DU-145 it was 16.8 µM (inactive); in the experiment on T47D, 15.7 µM (inactive); in the experiment with NCI-H460, 16.1 µM (inactive). Moreover, the GI50 is 16 µM (inactive) in the experiment on TK-10 and 8.02 µM (inactive) with MOLT-4.

As to `C=C1C(=O)O[C@H]2C[C@@H]1C(=O)CC(C)CCCC(C)=CCC[C@@]2(C)O` (stereo not given in full), the GI50 in the experiment on MCF7, in the experiment on RXF 393, in the experiment with HCC 2998, in the experiment with OVCAR-3, in the experiment with ACHN and with A549 was > 25 µM (inactive) each time. The GI50 in the experiment on MDA-MB-231, in the experiment on SK-OV-3, with M14, in the experiment with SNB-19, in the experiment with NCI-H522 and with MDA-N was > 25 µM (inactive) each time. In addition, the GI50 was 16.8 µM (inactive) in the experiment on SR; > 25 µM (inactive) in the experiment on SF-539; > 25 µM (inactive) in the experiment with U-251; > 25 µM (inactive) in the experiment with DU-145; > 25 µM (inactive) in the experiment on T47D; > 25 µM (inactive) in the experiment on NCI-H460. The GI50 in the experiment with TK-10 and with MOLT-4 was > 25 µM (inactive) in each case.

On to `CCCC[C@@H](C)/C=C1\CN2CCC[C@H]2[C@@](C)(O)[C@@H]1O`, for which the GI50 in the experiment with MCF7 is 80.2 µM (inactive); with RXF 393 it was 0.0292 µM (active); with HCC 2998 it was 71.3 µM (inactive); in the experiment with OVCAR-3, > 100 µM (inactive); in the experiment on ACHN, 42 µM (inactive); in the experiment on A549, 43.7 µM (inactive). Further, the GI50 with MDA-MB-231 is > 100 µM (inactive); with SK-OV-3, 73.3 µM (inactive); with M14 it was 53 µM (inactive); in the experiment with SNB-19 it was 58.9 µM (inactive); with NCI-H522, 56.1 µM (inactive); in the experiment on MDA-N it was > 100 µM (inactive). Also, the GI50 in the experiment on SR is 9.2 µM (inactive); in the experiment with SF-539, 62.2 µM (inactive); with U-251, 66.2 µM (inactive); in the experiment with DU-145, 17.3 µM (inactive); with T47D, 30.8 µM (inactive); with NCI-H460 it was 16.7 µM (inactive). Besides, the GI50 in the experiment on TK-10 and with MOLT-4 was > 100 µM (inactive) throughout.

`CCOC(=O)C(NC(=O)c1cccc(Cl)c1)(N1CCN(c2cc3c(cc2F)c(=O)c(C(=O)O)cn3CC)CC1)C(F)(F)F` (stereo not given): the GI50 in the experiment with MCF7 was 13.8 µM (inactive); in the experiment on RXF 393, 18.2 µM (inactive); in the experiment with HCC 2998 it was 12.6 µM (inactive); in the experiment with OVCAR-3 it was 14.8 µM (inactive); in the experiment with ACHN, 15.7 µM (inactive); in the experiment with A549, 18.7 µM (inactive). The GI50 is 15.8 µM (inactive) in the experiment with MDA-MB-231; 23.9 µM (inactive) in the experiment on SK-OV-3; 16.8 µM (inactive) in the experiment on M14; 29.4 µM (inactive) with SNB-19; 4.17 µM (inactive) in the experiment on NCI-H522; 14.9 µM (inactive) with MDA-N. Besides, the GI50 is 17.1 µM (inactive) with SR; 15.2 µM (inactive) with SF-539; 6.7 µM (inactive) in the experiment on U-251; 25.4 µM (inactive) in the experiment with DU-145; 19.4 µM (inactive) with T47D; 22.3 µM (inactive) in the experiment with NCI-H460. Also, the GI50 is 21.3 µM (inactive) in the experiment with TK-10 and 3.85 µM (inactive) in the experiment with MOLT-4.
